A short description of this data set: Cytotoxicity in pre-osteoblasts (unknown origin) assessed as cell death upto 5 uM by CCK8 assay. Type of data set: toxicity, cell-based. The following applies: pre-osteoblast.

The text below walks through data of ChEMBL document CHEMBL5625277, “Systematical mutational analysis of teriparatide on anti-osteoporosis activity by alanine scanning” (Bioorg Med Chem Lett, 2024).

On to `CC[C@H](C)[C@H](NC(=O)[C@H](CCC(=O)O)NC(=O)[C@H](CO)NC(=O)[C@@H](NC(=O)[C@H](CO)NC(C)=O)C(C)C)C(=O)N[C@@H](CCC(N)=O)C(=O)N[C@@H](CC(C)C)C(=O)N[C@@H](C)C(=O)N[C@@H](Cc1cnc[nH]1)C(=O)N[C@@H](CC(N)=O)C(=O)N[C@@H](CC(C)C)C(=O)NCC(=O)N[C@@H](CCCCN)C(=O)N[C@@H](Cc1cnc[nH]1)C(=O)N[C@@H](CC(C)C)C(=O)N[C@@H](CC(N)=O)C(=O)N[C@@H](CO)C(=O)N[C@@H](CCSC)C(=O)N[C@@H](CCC(=O)O)C(=O)N[C@@H](CCCNC(=N)N)C(=O)N[C@H](C(=O)N[C@@H](CCC(=O)O)C(=O)N[C@@H](Cc1c[nH]c2ccccc12)C(=O)N[C@@H](CC(C)C)C(=O)N[C@@H](CCCNC(=N)N)C(=O)N[C@@H](CCCCN)C(=O)N[C@@H](CCCCN)C(=O)N[C@@H](CC(C)C)C(=O)N[C@@H](CCC(N)=O)C(=O)N[C@@H](CC(=O)O)C(=O)N[C@H](C(=O)N[C@@H](Cc1cnc[nH]1)C(=O)N[C@@H](CC(N)=O)C(=O)N[C@@H](Cc1ccccc1)C(N)=O)C(C)C)C(C)C`, for which the Activity entry is recorded as “Non-Toxic”.
Take `CC[C@H](C)[C@H](NC(=O)[C@H](CCC(=O)O)NC(=O)[C@H](CO)NC(=O)[C@@H](NC(=O)[C@H](CO)NC(C)=O)C(C)C)C(=O)N[C@@H](CCC(N)=O)C(=O)N[C@@H](CC(C)C)C(=O)N[C@@H](CCSC)C(=O)N[C@@H](Cc1cnc[nH]1)C(=O)N[C@@H](CC(N)=O)C(=O)N[C@@H](CC(C)C)C(=O)NCC(=O)N[C@@H](CCCCN)C(=O)N[C@@H](C)C(=O)N[C@@H](CC(C)C)C(=O)N[C@@H](CC(N)=O)C(=O)N[C@@H](CO)C(=O)N[C@@H](CCSC)C(=O)N[C@@H](CCC(=O)O)C(=O)N[C@@H](CCCNC(=N)N)C(=O)N[C@H](C(=O)N[C@@H](CCC(=O)O)C(=O)N[C@@H](Cc1c[nH]c2ccccc12)C(=O)N[C@@H](CC(C)C)C(=O)N[C@@H](CCCNC(=N)N)C(=O)N[C@@H](CCCCN)C(=O)N[C@@H](CCCCN)C(=O)N[C@@H](CC(C)C)C(=O)N[C@@H](CCC(N)=O)C(=O)N[C@@H](CC(=O)O)C(=O)N[C@H](C(=O)N[C@@H](Cc1cnc[nH]1)C(=O)N[C@@H](CC(N)=O)C(=O)N[C@@H](Cc1ccccc1)C(N)=O)C(C)C)C(C)C`: the Activity entry is reported as “Non-Toxic”.
As for `CC[C@H](C)[C@H](NC(=O)[C@H](CCC(=O)O)NC(=O)[C@H](CO)NC(=O)[C@@H](NC(=O)[C@H](CO)NC(C)=O)C(C)C)C(=O)N[C@@H](CCC(N)=O)C(=O)N[C@@H](CC(C)C)C(=O)N[C@@H](CCSC)C(=O)N[C@@H](Cc1cnc[nH]1)C(=O)N[C@@H](CC(N)=O)C(=O)N[C@@H](CC(C)C)C(=O)NCC(=O)N[C@@H](CCCCN)C(=O)N[C@@H](Cc1cnc[nH]1)C(=O)N[C@@H](CC(C)C)C(=O)N[C@@H](CC(N)=O)C(=O)N[C@@H](CO)C(=O)N[C@@H](CCSC)C(=O)N[C@@H](CCC(=O)O)C(=O)N[C@@H](CCCNC(=N)N)C(=O)N[C@H](C(=O)N[C@@H](CCC(=O)O)C(=O)N[C@@H](C)C(=O)N[C@@H](CC(C)C)C(=O)N[C@@H](CCCNC(=N)N)C(=O)N[C@@H](CCCCN)C(=O)N[C@@H](CCCCN)C(=O)N[C@@H](CC(C)C)C(=O)N[C@@H](CCC(N)=O)C(=O)N[C@@H](CC(=O)O)C(=O)N[C@H](C(=O)N[C@@H](Cc1cnc[nH]1)C(=O)N[C@@H](CC(N)=O)C(=O)N[C@@H](Cc1ccccc1)C(N)=O)C(C)C)C(C)C`, the Activity entry is reported as “Non-Toxic”.
As for `CC[C@H](C)[C@H](NC(=O)[C@H](CCC(=O)O)NC(=O)[C@H](CO)NC(=O)[C@H](C)NC(=O)[C@H](CO)NC(C)=O)C(=O)N[C@@H](CCC(N)=O)C(=O)N[C@@H](CC(C)C)C(=O)N[C@@H](CCSC)C(=O)N[C@@H](Cc1cnc[nH]1)C(=O)N[C@@H](CC(N)=O)C(=O)N[C@@H](CC(C)C)C(=O)NCC(=O)N[C@@H](CCCCN)C(=O)N[C@@H](Cc1cnc[nH]1)C(=O)N[C@@H](CC(C)C)C(=O)N[C@@H](CC(N)=O)C(=O)N[C@@H](CO)C(=O)N[C@@H](CCSC)C(=O)N[C@@H](CCC(=O)O)C(=O)N[C@@H](CCCNC(=N)N)C(=O)N[C@H](C(=O)N[C@@H](CCC(=O)O)C(=O)N[C@@H](Cc1c[nH]c2ccccc12)C(=O)N[C@@H](CC(C)C)C(=O)N[C@@H](CCCNC(=N)N)C(=O)N[C@@H](CCCCN)C(=O)N[C@@H](CCCCN)C(=O)N[C@@H](CC(C)C)C(=O)N[C@@H](CCC(N)=O)C(=O)N[C@@H](CC(=O)O)C(=O)N[C@H](C(=O)N[C@@H](Cc1cnc[nH]1)C(=O)N[C@@H](CC(N)=O)C(=O)N[C@@H](Cc1ccccc1)C(N)=O)C(C)C)C(C)C`, the entry is “Non-Toxic”; as for `CC[C@H](C)[C@H](NC(=O)[C@H](C)NC(=O)[C@H](CO)NC(=O)[C@@H](NC(=O)[C@H](CO)NC(C)=O)C(C)C)C(=O)N[C@@H](CCC(N)=O)C(=O)N[C@@H](CC(C)C)C(=O)N[C@@H](CCSC)C(=O)N[C@@H](Cc1cnc[nH]1)C(=O)N[C@@H](CC(N)=O)C(=O)N[C@@H](CC(C)C)C(=O)NCC(=O)N[C@@H](CCCCN)C(=O)N[C@@H](Cc1cnc[nH]1)C(=O)N[C@@H](CC(C)C)C(=O)N[C@@H](CC(N)=O)C(=O)N[C@@H](CO)C(=O)N[C@@H](CCSC)C(=O)N[C@@H](CCC(=O)O)C(=O)N[C@@H](CCCNC(=N)N)C(=O)N[C@H](C(=O)N[C@@H](CCC(=O)O)C(=O)N[C@@H](Cc1c[nH]c2ccccc12)C(=O)N[C@@H](CC(C)C)C(=O)N[C@@H](CCCNC(=N)N)C(=O)N[C@@H](CCCCN)C(=O)N[C@@H](CCCCN)C(=O)N[C@@H](CC(C)C)C(=O)N[C@@H](CCC(N)=O)C(=O)N[C@@H](CC(=O)O)C(=O)N[C@H](C(=O)N[C@@H](Cc1cnc[nH]1)C(=O)N[C@@H](CC(N)=O)C(=O)N[C@@H](Cc1ccccc1)C(N)=O)C(C)C)C(C)C`, “Non-Toxic”; as for `CC[C@H](C)[C@H](NC(=O)[C@H](CCC(=O)O)NC(=O)[C@H](CO)NC(=O)[C@@H](NC(=O)[C@H](CO)NC(C)=O)C(C)C)C(=O)N[C@@H](CCC(N)=O)C(=O)N[C@@H](CC(C)C)C(=O)N[C@@H](CCSC)C(=O)N[C@@H](Cc1cnc[nH]1)C(=O)N[C@@H](C)C(=O)N[C@@H](CC(C)C)C(=O)NCC(=O)N[C@@H](CCCCN)C(=O)N[C@@H](Cc1cnc[nH]1)C(=O)N[C@@H](CC(C)C)C(=O)N[C@@H](CC(N)=O)C(=O)N[C@@H](CO)C(=O)N[C@@H](CCSC)C(=O)N[C@@H](CCC(=O)O)C(=O)N[C@@H](CCCNC(=N)N)C(=O)N[C@H](C(=O)N[C@@H](CCC(=O)O)C(=O)N[C@@H](Cc1c[nH]c2ccccc12)C(=O)N[C@@H](CC(C)C)C(=O)N[C@@H](CCCNC(=N)N)C(=O)N[C@@H](CCCCN)C(=O)N[C@@H](CCCCN)C(=O)N[C@@H](CC(C)C)C(=O)N[C@@H](CCC(N)=O)C(=O)N[C@@H](CC(=O)O)C(=O)N[C@H](C(=O)N[C@@H](Cc1cnc[nH]1)C(=O)N[C@@H](CC(N)=O)C(=O)N[C@@H](Cc1ccccc1)C(N)=O)C(C)C)C(C)C`, “Non-Toxic”.
Consider `CC[C@H](C)[C@H](NC(=O)[C@H](CCC(=O)O)NC(=O)[C@H](CO)NC(=O)[C@@H](NC(=O)[C@H](CO)NC(C)=O)C(C)C)C(=O)N[C@@H](CCC(N)=O)C(=O)N[C@@H](CC(C)C)C(=O)N[C@@H](CCSC)C(=O)N[C@@H](Cc1cnc[nH]1)C(=O)N[C@@H](CC(N)=O)C(=O)N[C@@H](CC(C)C)C(=O)NCC(=O)N[C@@H](CCCCN)C(=O)N[C@@H](Cc1cnc[nH]1)C(=O)N[C@@H](CC(C)C)C(=O)N[C@@H](C)C(=O)N[C@@H](CO)C(=O)N[C@@H](CCSC)C(=O)N[C@@H](CCC(=O)O)C(=O)N[C@@H](CCCNC(=N)N)C(=O)N[C@H](C(=O)N[C@@H](CCC(=O)O)C(=O)N[C@@H](Cc1c[nH]c2ccccc12)C(=O)N[C@@H](CC(C)C)C(=O)N[C@@H](CCCNC(=N)N)C(=O)N[C@@H](CCCCN)C(=O)N[C@@H](CCCCN)C(=O)N[C@@H](CC(C)C)C(=O)N[C@@H](CCC(N)=O)C(=O)N[C@@H](CC(=O)O)C(=O)N[C@H](C(=O)N[C@@H](Cc1cnc[nH]1)C(=O)N[C@@H](CC(N)=O)C(=O)N[C@@H](Cc1ccccc1)C(N)=O)C(C)C)C(C)C`, for which the Activity entry is “Non-Toxic”.
Take `CC[C@H](C)[C@H](NC(=O)[C@H](CCC(=O)O)NC(=O)[C@H](CO)NC(=O)[C@@H](NC(=O)[C@H](CO)NC(C)=O)C(C)C)C(=O)N[C@@H](CCC(N)=O)C(=O)N[C@@H](CC(C)C)C(=O)N[C@@H](CCSC)C(=O)N[C@@H](Cc1cnc[nH]1)C(=O)N[C@@H](CC(N)=O)C(=O)N[C@@H](CC(C)C)C(=O)NCC(=O)N[C@@H](CCCCN)C(=O)N[C@@H](Cc1cnc[nH]1)C(=O)N[C@@H](CC(C)C)C(=O)N[C@@H](CC(N)=O)C(=O)N[C@@H](CO)C(=O)N[C@@H](CCSC)C(=O)N[C@@H](CCC(=O)O)C(=O)N[C@@H](CCCNC(=N)N)C(=O)N[C@@H](C)C(=O)N[C@@H](CCC(=O)O)C(=O)N[C@@H](Cc1c[nH]c2ccccc12)C(=O)N[C@@H](CC(C)C)C(=O)N[C@@H](CCCNC(=N)N)C(=O)N[C@@H](CCCCN)C(=O)N[C@@H](CCCCN)C(=O)N[C@@H](CC(C)C)C(=O)N[C@@H](CCC(N)=O)C(=O)N[C@@H](CC(=O)O)C(=O)N[C@H](C(=O)N[C@@H](Cc1cnc[nH]1)C(=O)N[C@@H](CC(N)=O)C(=O)N[C@@H](Cc1ccccc1)C(N)=O)C(C)C`: the Activity entry was “Non-Toxic”.
For the compound `CC[C@H](C)[C@H](NC(=O)[C@H](CCC(=O)O)NC(=O)[C@H](CO)NC(=O)[C@@H](NC(=O)[C@H](CO)NC(C)=O)C(C)C)C(=O)N[C@@H](CCC(N)=O)C(=O)N[C@@H](CC(C)C)C(=O)N[C@@H](CCSC)C(=O)N[C@@H](Cc1cnc[nH]1)C(=O)N[C@@H](CC(N)=O)C(=O)N[C@@H](CC(C)C)C(=O)NCC(=O)N[C@@H](CCCCN)C(=O)N[C@@H](Cc1cnc[nH]1)C(=O)N[C@@H](CC(C)C)C(=O)N[C@@H](CC(N)=O)C(=O)N[C@@H](CO)C(=O)N[C@@H](CCSC)C(=O)N[C@@H](CCC(=O)O)C(=O)N[C@@H](CCCNC(=N)N)C(=O)N[C@H](C(=O)N[C@@H](CCC(=O)O)C(=O)N[C@@H](Cc1c[nH]c2ccccc12)C(=O)N[C@@H](CC(C)C)C(=O)N[C@@H](CCCNC(=N)N)C(=O)N[C@@H](CCCCN)C(=O)N[C@@H](C)C(=O)N[C@@H](CC(C)C)C(=O)N[C@@H](CCC(N)=O)C(=O)N[C@@H](CC(=O)O)C(=O)N[C@H](C(=O)N[C@@H](Cc1cnc[nH]1)C(=O)N[C@@H](CC(N)=O)C(=O)N[C@@H](Cc1ccccc1)C(N)=O)C(C)C)C(C)C`, the Activity entry is given as “Non-Toxic”.
